These results are taken from patent publication US20230134747A1, “COMPOSITIONS FOR THE TREATMENT OF AUTISM SPECTRUM DISORDER” (STALICLA SA, priority 2020, published 2023).

The subject of assay [1] is patients with idiopathic ASD. Nature of the assay: Observational clinical pilot study: earlier oral bumetanide treatment of ASD patients. Type of assay: in vivo, human. The settings on record: three patients with idiopathic ASD; oral solution 0.5, 1.0 or 2 mg twice daily for three months. As to the method: The main goal of this pilot study was to validate the clinical benefit of bumetanide in patients showing clinical signs and symptoms characterizing ASD phenotype 3. First, a custom semi-structured online clinical questionnaire (Questionnaire […] 2021) comprising a total of 38 medical examination questions and 73 medical history questions was administered by a clinician during a remote screening visit (over the phone) that took up to 90 min. This remote screening visit included reviewing detailed medical history and clinical signs and symptoms related to ASD phenotype 3 with the patient/caregiver for a clinical validation. […]

Assay [2] deals with human cell lines (A549, ASC, HA1E, HT29, MCF7, PC3, VCAP). Nature of the assay: Differential gene expression (QuantSeq RNA sequencing) after bumetanide treatment of cell lines. The assay is classed as cell-based. The settings on record: 10 uM, 6 or 24 hours, across cell lines. How it is done:
To characterize the cell line invariant mechanism of action, bumetanide was tested across different human cell lines including several cancer cell lines (such as A549, MCF7, PC3, HT29 and VAP) as well as cells from healthy tissues (such as ASC and HA1E). These cell lines (Table 3) were chosen due to their ease of manipulation and suitability for systematic screening. […] Incubation of cell types was performed inside an incubator with a humified atmosphere of 95% and 5% of CO2, and a constant temperature of 37° C. Cells were treated with bumetanide using a dilution of 10 uM for all replicates at a time duration of 6 or 24 hours. [table] Following drug treatment, RNA extracted from each treated cell line was sequenced with QuantSeq with 4-6 million coverage reads per sample in triplicates.

The test system of a further assay is ASD patients. As to conditions: clinical setting; heterogeneous responses reported; cited from earlier work.

`CCCCNc1cc(C(=O)O)cc(S(N)(=O)=O)c1Oc1ccccc1` [bumetanide, 3-(butylamino)-4-phenoxy-5-sulfamoylbenzoic acid]: the “Clinical response of ASD patients to treatment” value in assay [1] is “shown improvement”. In assay [2] (gene GNAS), the “DEG ranking after treatment, GNAS” value came to 1 and the “Direction of differential expression, GNAS” value is recorded as “DOWN”. Moreover, the “DEG ranking after treatment, KCNJ6” value in assay [2] (gene KCNJ6) came to 19. The “DEG ranking after treatment, KCNJ10” value in assay [2] (gene KCNJ10) came to 113. Besides, the “DEG ranking after treatment, KCNK3” value in assay [2] (gene KCNK3) is 49. Also, the “DEG ranking after treatment, KCNQ3” value in assay [2] (gene KCNQ3) was found to be 48. Further, the “DEG ranking after treatment, KCNV1” value in assay [2] (gene KCNV1) stood at 165. In addition, in assay [2] (gene SLC12A5 (KCC2)), the “DEG ranking after treatment, SLC12A5 (KCC2)” value is listed as 35. In addition, the “DEG ranking after treatment, SNAP25” value in assay [2] (gene SNAP25) amounted to 1.

Consider `C[S+]([O-])CCCCN=C=S` (centres unmarked) [sulforaphane], for which, in the assay on ASD patients, the “Effect on behaviour in ASD patients” value is reported as “improve behaviour in some ASD patients”.
